Values of other authors, collected in patent publication US11724007B2, “Operating room coating applicator and method” (Ethicon, Inc., priority 2018, dated 2023).

Tested on: S. aureus
Details: measured in a suitable growth medium; described by Bhargava, H. et al, American Journal of Infection Control, June 1996

Structure (SMILES): Oc1cc(Cl)ccc1Oc1ccc(Cl)cc1Cl [triclosan, 2,4,4′-trichloro-2′-hydroxydiphenyl ether]
- minimum inhibitory concentration (MIC) against S. aureus: 0.01 ppm
